Assay results from the supplement of paper PMC13380429.

Assays:
Details in all cases: 72 h
Vero E6 [1] = experiment: relative viability EC50 (midpoint between 100% and the lowest measured viability); higher = less toxic
HepG2 [2] = experiment: as above
U2OS [3] = experiment: as above
Caco-2 [4] = experiment: as above
Calu-3 [5] = experiment: as above
Vero E6 [6] = experiment: cell viability relative to DMSO; higher = less toxic
HepG2 [7] = experiment: as above
U2OS [8] = experiment: as above
Caco-2 [9] = experiment: as above
Calu-3 [10] = experiment: as above
Vero E6 [11] = experiment: drug sensitivity score (DSS) for viability; higher = more toxic; extreme values may be limits of the assay
HepG2 [12] = experiment: as above
U2OS [13] = experiment: as above
Caco-2 [14] = experiment: as above
Calu-3 [15] = experiment: as above

SMILES | relative viability EC50 (Vero E6 [1]) [µM] | relative viability EC50 (HepG2 [2]) [µM] | relative viability EC50 (U2OS [3]) [µM] | relative viability EC50 (Caco-2 [4]) [µM] | relative viability EC50 (Calu-3 [5]) [µM] | cell viability (Vero E6 [6]; 1 nM) [%] | cell viability (Vero E6 [6]; 10 nM) [%] | cell viability (Vero E6 [6]; 100 nM) [%] | cell viability (Vero E6 [6]; 1000 nM) [%] | cell viability (Vero E6 [6]; 10000 nM) [%] | cell viability (HepG2 [7]; 1 nM) [%] | cell viability (HepG2 [7]; 10 nM) [%] | cell viability (HepG2 [7]; 100 nM) [%] | cell viability (HepG2 [7]; 1000 nM) [%] | cell viability (HepG2 [7]; 10000 nM) [%] | cell viability (U2OS [8]; 1 nM) [%] | cell viability (U2OS [8]; 10 nM) [%] | cell viability (U2OS [8]; 100 nM) [%] | cell viability (U2OS [8]; 1000 nM) [%] | cell viability (U2OS [8]; 10000 nM) [%] | cell viability (Caco-2 [9]; 1 nM) [%] | cell viability (Caco-2 [9]; 10 nM) [%] | cell viability (Caco-2 [9]; 100 nM) [%] | cell viability (Caco-2 [9]; 1000 nM) [%] | cell viability (Caco-2 [9]; 10000 nM) [%] | cell viability (Calu-3 [10]; 1 nM) [%] | cell viability (Calu-3 [10]; 10 nM) [%] | cell viability (Calu-3 [10]; 100 nM) [%] | cell viability (Calu-3 [10]; 1000 nM) [%] | cell viability (Calu-3 [10]; 10000 nM) [%] | drug sensitivity score (Vero E6 [11]) | drug sensitivity score (HepG2 [12]) | drug sensitivity score (U2OS [13]) | drug sensitivity score (Caco-2 [14]) | drug sensitivity score (Calu-3 [15])
CC(C)(C)/[N+]([O-])=C/c1ccc(S(=O)(=O)O)cc1S(=O)(=O)O [NXY-059] | > 10 | > 10 | > 10 | > 10 | > 10 | 99.1 | 105 | 106 | 105 | 101 | 101 | 94.4 | 102 | 100 | 96.8 | 94.6 | 100 | 93.4 | 98.7 | 106 | 98.5 | 101 | 96.5 | 105 | 97.5 | 91.3 | 97 | 98.4 | 95 | 95.8 | 0 | 0 | 0 | 0 | 0
CCC(=O)N1CCOc2c(cc(-c3ccc(OC)c(OC)c3)cc2OC[C@H]2CCCN(C)C2)C1 [I-CBP-112] | > 10 | > 10 | > 10 | > 10 | > 10 | 105 | 102 | 97.2 | 105 | 78.4 | 96.6 | 107 | 87.5 | 104 | 86 | 98.5 | 92 | 95.5 | 95.3 | 97.8 | 101 | 99.9 | 103 | 98.6 | 94.7 | 96.6 | 95 | 99.5 | 95.9 | 87.4 | 0.5 | 0.1 | 0 | 0 | 0.3
CC(C)(O)CNc1nc(Nc2ccnc(C(F)(F)F)c2)nc(-c2cccc(C(F)(F)F)n2)n1 [enasidenib] | > 10 | > 10 | > 10 | > 10 | > 10 | 98.2 | 94.2 | 97.9 | 99.6 | 101 | 106 | 96.9 | 110 | 106 | 91.7 | 101 | 104 | 99.9 | 104 | 92 | 94.5 | 115 | 107 | 102 | 79.3 | 96 | 106 | 103 | 87.8 | 92.7 | 0 | 0 | 0 | 0.5 | 0.5
CN(C)C(=O)Oc1ccc[n+](C)c1 [mestinon] | > 10 | > 10 | > 10 | > 10 | > 10 | 99.8 | 108 | 102 | 104 | 93.5 | 95.1 | 93 | 101 | 91.2 | 96.3 | 104 | 102 | 106 | 98.6 | 104 | 91.5 | 95.9 | 107 | 99.8 | 99.1 | 96.5 | 95.1 | 102 | 93.7 | 94.5 | 0 | 0 | 0 | 0 | 0
O=c1c(O[C@@H]2O[C@H](CO)[C@H](O)[C@H](O)[C@H]2O)c(-c2ccc(O)c(O)c2)oc2cc(O)cc(O)c12 [hyperin] | > 10 | > 10 | > 10 | > 10 | > 10 | 98 | 97.2 | 94 | 97.7 | 108 | 84.8 | 95.7 | 87.3 | 103 | 97.9 | 99.5 | 97.3 | 101 | 98.4 | 100 | 104 | 93.3 | 99 | 107 | 105 | 96.9 | 86.3 | 102 | 104 | 98.9 | 0 | 0 | 0 | 0 | 0
O=S(=O)(/N=C/c1c(O)ccc2ccccc12)c1cccs1 | > 10 | > 10 | > 10 | > 10 | > 10 | 99.9 | 102 | 100 | 106 | 94.5 | 100 | 120 | 96.8 | 109 | 99.9 | 103 | 100 | 98.9 | 99.5 | 103 | 102 | 95.8 | 97.4 | 95.9 | 103 | 91.3 | 99.3 | 99.8 | 104 | 100 | 0 | 0 | 0 | 0 | 0
COc1cc(N2CCC(N(C)C)CC2)ccc1Nc1ncc(Cl)c(Nc2ccccc2P(C)(C)=O)n1 | 3.17 | 1.11 | 1.9 | 1.37 | 0.943 | 101 | 105 | 103 | 100 | 25.6 | 105 | 107 | 92.9 | 61.3 | 14.4 | 98.2 | 100 | 102 | 83.4 | 0.5 | 93.9 | 95.2 | 94.8 | 79.4 | 41.9 | 97.9 | 97.2 | 93.8 | 51.7 | 5.6 | 4.1 | 9.2 | 8.2 | 5.6 | 10.9
CC1(C)S[C@@H]2[C@H](NC(=O)COc3ccccc3)C(=O)N2[C@H]1C(=O)O [penicillin-v-potassium] | > 10 | > 10 | > 10 | > 10 | > 10 | 104 | 101 | 104 | 103 | 96.9 | 105 | 105 | 103 | 94.9 | 97.4 | 101 | 96.4 | 99.8 | 97 | 98.7 | 97.5 | 95.6 | 94.3 | 92.7 | 90 | 91.3 | 97.1 | 101 | 108 | 94.9 | 0 | 0 | 0 | 0 | 0
Nc1nc(NC2CC2)cc(-c2cccc(Cl)c2Cl)n1 [TH-588] | > 10 | > 10 | > 10 | > 10 | > 10 | 100 | 104 | 98.1 | 101 | 89.6 | 95.4 | 97.1 | 102 | 101 | 95.4 | 96.3 | 99.2 | 105 | 97.9 | 98.6 | 92.1 | 91.1 | 96.4 | 93.7 | 96.8 | 95.5 | 94 | 101 | 104 | 98.5 | 0 | 0 | 0 | 0 | 0
Cc1noc(NS(=O)(=O)c2ccc(N)cc2)c1C [sulfafurazole] | > 10 | > 10 | > 10 | > 10 | > 10 | 101 | 96.6 | 98.6 | 99.2 | 98.7 | 93 | 94.3 | 90.6 | 102 | 100 | 100 | 96.5 | 99.5 | 96 | 101 | 95.7 | 94.2 | 96.6 | 94 | 103 | 96.2 | 92.7 | 105 | 107 | 98.1 | 0 | 0 | 0 | 0 | 0
CN1[C@@H]2CC[C@H]1C[C@@H](OC(=O)c1cc(Cl)cc(Cl)c1)C2 [bemesetron] | > 10 | > 10 | > 10 | > 10 | > 10 | 98.2 | 103 | 95.8 | 99.5 | 104 | 98.7 | 101 | 91.3 | 107 | 106 | 98.7 | 96.7 | 101 | 98.7 | 99.7 | 104 | 97.8 | 103 | 94.9 | 82.2 | 86.5 | 87.7 | 94.5 | 94 | 95 | 0 | 0 | 0 | 1 | 0
O=S(=O)(c1ccccc1)c1cnc2c(N3CCNCC3)cccc2c1 | > 10 | > 10 | > 10 | > 10 | > 10 | 93.3 | 97.4 | 95 | 97.3 | 106 | 93.8 | 105 | 97.1 | 108 | 87.2 | 102 | 96.8 | 102 | 99 | 97 | 95.9 | 101 | 102 | 94.8 | 101 | 90.2 | 96.5 | 104 | 96.7 | 98.4 | 0 | 0 | 0 | 0 | 0
N=C(NCc1ccc(Cl)cc1)SCCCc1c[nH]cn1 [clobenpropit] | > 10 | > 10 | > 10 | > 10 | > 10 | 101 | 100 | 97.4 | 93.3 | 97.5 | 94.2 | 106 | 105 | 102 | 84 | 110 | 104 | 99.5 | 98.3 | 99.6 | 97.5 | 96.2 | 101 | 93.5 | 104 | 108 | 100 | 103 | 101 | 82.4 | 0 | 0.2 | 0 | 0 | 0.3
NS(=O)(=O)c1ccc2c(c1)C1C=CCC1C(c1ccc(Br)cc1)N2 (stereo not given) [4BP-TQS] | > 10 | > 10 | > 10 | > 10 | > 10 | 104 | 99.1 | 102 | 104 | 100 | 101 | 105 | 89.5 | 91.5 | 94 | 97.8 | 98.6 | 103 | 96.6 | 97.5 | 102 | 97.1 | 99.6 | 98.5 | 97.1 | 110 | 89.3 | 101 | 96.3 | 105 | 0 | 0.2 | 0 | 0 | 0
